From ChEMBL document CHEMBL1201862, “PubChem BioAssay data set” (2004)
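Compound exposure: 48 hours, 5 concentrations, 96-well plates. GI50: concentration for 50% inhibition of growth.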 Calls of active or inactive are those of the source. No stated cut-off is given here; in the data, active = GI50 up to about 1.1 µM and inactive = higher.

Assays:
Assay in all cases: inhibition of tumour cell growth, NCI panel, 48 h
[1] = system: HCT-15
[2] = system: NCI-H23
[3] = system: PC-3
[4] = system: MDA-MB-435
[5] = system: M14
[6] = system: U-251
[7] = system: HT-29
[8] = system: HCC 2998
[9] = system: COLO 205
[10] = system: OVCAR-5
[11] = system: SK-OV-3
[12] = system: SN12C
[13] = system: NCI-H226
[14] = system: SW-620
[15] = system: A498
[16] = system: CAKI-1
[17] = system: HCT-116
[18] = system: IGROV-1
[19] = system: UACC-62
[20] = system: UACC-257
[21] = system: OVCAR-8
[22] = system: SK-MEL-5
[23] = system: BT-549
[24] = system: SF-295
[25] = system: LOX IMVI
[26] = system: NCI/ADR-RES
[27] = system: DU-145
[28] = system: NCI-H460
[29] = system: HOP-92
[30] = system: SNB-19
[31] = system: OVCAR-4
[32] = system: K562
[33] = system: KM12
[34] = system: T47D
[35] = system: MCF7
[36] = system: SK-MEL-28
[37] = system: RPMI-8226
[38] = system: OVCAR-3
[39] = system: Hs-578T
[40] = system: RXF 393
[41] = system: MOLT-4
[42] = system: MDA-MB-231
[43] = system: MDA-N
[44] = system: ACHN
[45] = system: NCI-H522
[46] = system: Malme-3M
[47] = system: A549
[48] = system: HOP-62
[49] = system: TK-10
[50] = system: SNB-75
[51] = system: UO-31
[52] = system: 786-0
[53] = system: SK-MEL-2
[54] = system: EKVX
[55] = system: SF-268
[56] = system: SF-539
[57] = system: CCRF-CEM
[58] = system: HL-60

Cn1ncc2c(NCCc3ccccc3)nc(Cl)nc21
GI50 [1]: 25.4 µM
GI50 [2]: 24.8 µM (inactive)
GI50 [3]: 17.9 µM (inactive)
GI50 [4]: 20.6 µM (inactive)
GI50 [5]: 15 µM (inactive)
GI50 [6]: 30.2 µM (inactive)
GI50 [7]: 14.7 µM (inactive)
GI50 [8]: 18.8 µM (inactive)
GI50 [9]: 17.3 µM (inactive)
GI50 [10]: 14 µM (inactive)
GI50 [11]: 19.5 µM (inactive)
GI50 [12]: 44.6 µM (inactive)
GI50 [13]: 21.5 µM (inactive)
GI50 [14]: 23.3 µM (inactive)
GI50 [15]: 17.7 µM (inactive)
GI50 [16]: 28.1 µM (inactive)
GI50 [17]: 27.8 µM (inactive)
GI50 [18]: 33.1 µM (inactive)
GI50 [19]: 5.97 µM (inactive)
GI50 [20]: 2.48 µM (inactive)
GI50 [21]: 27.2 µM (inactive)
GI50 [22]: 17.6 µM (inactive)
GI50 [23]: 23.5 µM (inactive)
GI50 [24]: 16.4 µM (inactive)
GI50 [25]: 16.7 µM (inactive)
GI50 [26]: 16.4 µM (inactive)
GI50 [27]: 44.9 µM (inactive)
GI50 [28]: 15.6 µM (inactive)
GI50 [29]: 15.3 µM (inactive)
GI50 [30]: 44.9 µM (inactive)
GI50 [31]: 18.8 µM (inactive)
GI50 [32]: 17.6 µM (inactive)
GI50 [33]: 26.2 µM (inactive)
GI50 [34]: 11.4 µM (inactive)
GI50 [35]: 30 µM (inactive)
GI50 [36]: 28.7 µM (inactive)
GI50 [37]: 13.7 µM (inactive)
GI50 [38]: 33.3 µM (inactive)
GI50 [39]: 8.93 µM (inactive)
GI50 [40]: 17.1 µM (inactive)
GI50 [41]: 14.7 µM (inactive)
GI50 [42]: 3.97 µM (inactive)
GI50 [43]: 23.2 µM (inactive)
GI50 [44]: 28.6 µM (inactive)
GI50 [45]: 21.9 µM (inactive)
GI50 [46]: 58.9 µM (inactive)
GI50 [47]: 20.4 µM (inactive)
GI50 [48]: 24.4 µM (inactive)
GI50 [49]: 20.9 µM (inactive)
GI50 [50]: 21.1 µM (inactive)
GI50 [51]: 19 µM (inactive)
GI50 [52]: 23.4 µM (inactive)
GI50 [53]: 10.7 µM (inactive)
GI50 [54]: 1.75 µM (inactive)
GI50 [55]: 38.2 µM (inactive)

CC(=O)O/C(=C(/C#N)C(=O)O)C1C(C(=O)O)C(c2ccccc2[N+](=O)[O-])C=C(c2ccco2)N1c1ccncc1 (centres undefined)
GI50 [1]: 1.71 µM
GI50 [2]: 5.45 µM (inactive)
GI50 [3]: 6.4 µM (inactive)
GI50 [4]: 4.62 µM (inactive)
GI50 [5]: 2.87 µM (inactive)
GI50 [6]: 2.11 µM (inactive)
GI50 [56]: 1.95 µM (inactive)
GI50 [7]: 1.61 µM (inactive)
GI50 [8]: 4.97 µM (inactive)
GI50 [9]: 3.41 µM (inactive)
GI50 [10]: 7.89 µM (inactive)
GI50 [11]: 11.6 µM (inactive)
GI50 [12]: 4.86 µM (inactive)
GI50 [13]: 4.63 µM (inactive)
GI50 [14]: 1.85 µM (inactive)
GI50 [15]: 11.2 µM (inactive)
GI50 [16]: 4.3 µM (inactive)
GI50 [17]: 1.52 µM (inactive)
GI50 [18]: 1.12 µM (inactive)
GI50 [19]: 7.52 µM (inactive)
GI50 [20]: 3.9 µM (inactive)
GI50 [21]: 5.02 µM (inactive)
GI50 [22]: 2.94 µM (inactive)
GI50 [57]: 2.43 µM (inactive)
GI50 [23]: 6.04 µM (inactive)
GI50 [24]: 7.67 µM (inactive)
GI50 [25]: 1.91 µM (inactive)
GI50 [26]: 8.57 µM (inactive)
GI50 [27]: 8.49 µM (inactive)
GI50 [28]: 6.35 µM (inactive)
GI50 [29]: 16 µM (inactive)
GI50 [30]: 11.8 µM (inactive)
GI50 [31]: 14.3 µM (inactive)
GI50 [32]: 2.31 µM (inactive)
GI50 [33]: 1.48 µM (inactive)
GI50 [34]: 6.73 µM (inactive)
GI50 [35]: 1.03 µM (active)
GI50 [36]: 10.4 µM (inactive)
GI50 [37]: 1.68 µM (inactive)
GI50 [38]: 2.94 µM (inactive)
GI50 [39]: 8.93 µM (inactive)
GI50 [41]: 2.54 µM (inactive)
GI50 [42]: 4.78 µM (inactive)
GI50 [43]: 2.81 µM (inactive)
GI50 [44]: 2.17 µM (inactive)
GI50 [45]: 2.09 µM (inactive)
GI50 [46]: 8.43 µM (inactive)
GI50 [47]: 3.41 µM (inactive)
GI50 [48]: 7.82 µM (inactive)
GI50 [49]: 3.33 µM (inactive)
GI50 [50]: 6.38 µM (inactive)
GI50 [51]: 2.87 µM (inactive)
GI50 [52]: 2.82 µM (inactive)
GI50 [53]: 9.25 µM (inactive)
GI50 [54]: 9.25 µM (inactive)
GI50 [58]: 2.75 µM (inactive)
GI50 [55]: 9.23 µM (inactive)

C/C=C\C(CC(=O)NCCC1CN(C(=O)c2ccccc2)c2ccccc21)CC(=O)OC (centres undefined)
GI50 [1]: > 100 µM
GI50 [2]: > 100 µM (inactive)
GI50 [3]: > 100 µM (inactive)
GI50 [4]: > 100 µM (inactive)
GI50 [5]: > 100 µM (inactive)
GI50 [6]: > 100 µM (inactive)
GI50 [7]: > 100 µM (inactive)
GI50 [8]: > 100 µM (inactive)
GI50 [9]: > 100 µM (inactive)
GI50 [10]: > 100 µM (inactive)
GI50 [11]: > 100 µM (inactive)
GI50 [14]: > 100 µM (inactive)
GI50 [15]: > 100 µM (inactive)
GI50 [16]: > 100 µM (inactive)
GI50 [17]: > 100 µM (inactive)
GI50 [18]: > 100 µM (inactive)
GI50 [19]: > 100 µM (inactive)
GI50 [20]: > 100 µM (inactive)
GI50 [21]: > 100 µM (inactive)
GI50 [22]: 97.3 µM (inactive)
GI50 [23]: > 100 µM (inactive)
GI50 [24]: > 100 µM (inactive)
GI50 [26]: > 100 µM (inactive)
GI50 [27]: > 100 µM (inactive)
GI50 [28]: > 100 µM (inactive)
GI50 [29]: > 100 µM (inactive)
GI50 [30]: > 100 µM (inactive)
GI50 [31]: > 100 µM (inactive)
GI50 [32]: > 100 µM (inactive)
GI50 [33]: > 100 µM (inactive)
GI50 [34]: > 100 µM (inactive)
GI50 [35]: > 100 µM (inactive)
GI50 [36]: > 100 µM (inactive)
GI50 [37]: > 100 µM (inactive)
GI50 [38]: > 100 µM (inactive)
GI50 [39]: > 100 µM (inactive)
GI50 [40]: > 100 µM (inactive)
GI50 [41]: > 100 µM (inactive)
GI50 [42]: > 100 µM (inactive)
GI50 [43]: > 100 µM (inactive)
GI50 [44]: > 100 µM (inactive)
GI50 [45]: > 100 µM (inactive)
GI50 [46]: > 100 µM (inactive)
GI50 [47]: > 100 µM (inactive)
GI50 [48]: > 100 µM (inactive)
GI50 [49]: > 100 µM (inactive)
GI50 [50]: > 100 µM (inactive)
GI50 [51]: > 100 µM (inactive)
GI50 [52]: > 100 µM (inactive)
GI50 [53]: > 100 µM (inactive)
GI50 [54]: > 100 µM (inactive)
GI50 [55]: > 100 µM (inactive)
